Results published in US20190038650A1, “COMPOSITIONS AND METHODS FOR THE TREATMENT OF ATHEROSCLEROSIS AND HEPATOSTEATOSIS AND OTHER DISEASES” (priority 2016, published 2019).

How the values were obtained:
Mice fed a Western diet [1] = experiment: Steatosis / body composition in mice fed a Western diet; assay type: in vivo
Experimental: Mice were fed a Western diet in combination with saline, sucrose or trehalose. The saline, sucrose or trehalose was administered orally and IP. Oral administration was provided in the cage water supply at 2% w/v in water (w/v=weight/volume). Additionally, 2 grams trehlose/kg mouse weight was injected IP. IP injection was 3 times/week. […] It was then determined if this significant reduction in body mass was due to fat mass or lean mass. […] (FIG. 2B). It was then determined the location of the increase in fat mass via tissue weights. […] Finally, the amount of liver triglycerides was measured in each group.

[2] = oral; cited from earlier work
[3] = orally and intravenously, doses substantially higher than the intended therapeutic dose; cited from earlier work
Mice fed a Western diet [4] = experiment: Insulin tolerance test; assay type: in vivo; details: compared to saline and sucrose, FIG. 3
Experimental: Additionally, an insulin tolerance test was performed in the presence of saline, sucrose or trehalose.

[5] = cited from earlier work
[6] = Trehalose tolerance test, serum trehalose in trehalase knockout mice; assay type: in vivo; details: trehalose IP 1 g/kg, trehalase knockout mice versus control mice
Experimental: To determine if inhibition of trehalase could enhance the efficacy of trehalose, a trehalase knockout mouse was generated. Control mice and trehalase knockout mice were then administered trehalose IP at 1 g/kg. Of 12 chimeric founders, a trehalose tolerance test was performed on n=3 non-targeted controls and n=5 chimeric mice. […] The serum concentration of trehalose at 30 minutes post-administration was measured.

ApoE deficient mice = experiment: Atherosclerotic lesion size in ApoE deficient mice fed a Western diet; assay type: in vivo; details: trehalose oral and IP, 2 months post-treatment, relative to vehicle
Experimental: ApoE deficient mice were fed a Western diet with and without treatment with trehalose. Trehalose was administered oral and IP. At 2 months post-treatment the presence of atherosclerosis was evaluated.

OC[C@H]1O[C@H](O[C@H]2O[C@H](CO)[C@@H](O)[C@H](O)[C@H]2O)[C@H](O)[C@@H](O)[C@@H]1O [trehalose]
lean mass (Mice fed a Western diet [1]; FIG. 2B): not lean mass
liver triglycerides (Mice fed a Western diet [1]; FIG. 2D): significant reduction in liver triglycerides
body mass (Mice fed a Western diet [1]; Western diet, oral 2% w/v in water plus 2 g/kg IP 3 times/week, at 13-16 weeks): significantly decreased body mass
fat mass (Mice fed a Western diet [1]; at 16 weeks, relative to saline or sucrose): significant reduction in fat mass
subcutaneous (subQ) fat mass (Mice fed a Western diet [1]; tissue weights, FIG. 2C): reduction of fat mass in the subcutaneous (subQ) fat
tissue mass in the liver (Mice fed a Western diet [1]; tissue weights, FIG. 2C): significant reduction in tissue mass in the liver
ingested trehalose absorbed into the blood stream [2]: Less than 0.5%
trehalose not absorbed into the blood stream [2]: Over 99.5%
safety and toxicity [3]: found to be safe
insulin resistance (insulin tolerance test) (Mice fed a Western diet [4]): less insulin resistance was observed
oral amount that may cause diarrhea and bloating [5]: 40-50 gram per day
oral amount that frequently causes diarrhea, bloating and discomfort ([5]; humans): higher than 50 g a day
serum concentration of trehalose at 30 minutes post-administration [6]: significantly higher serum levels of trehalose
atherosclerotic lesion size (ApoE deficient mice): significantly reduced atherosclerotic lesion size
